Literature values, collected in patent US9272011B2, “Pharmaceutical composition for treating urinary incontinence and enuresis” (LABORATEC, S.L., priority 2012, dated 2016).

Tested on: enuresis
Details: enuresis therapy, literature studies

Structure (SMILES): CN(C)CCCN1c2ccccc2CCc2ccccc21 [Imipramine]
- response rate: approximately 50%
